Reference: patent publication US7592319B2, “Uses of DNA-PK” (Sloan-Kettering Institute for Cancer Research, priority 1998, dated 2009)

Test system: cells derived from either Ku70 or Ku80 knock-out mice
Assay: Survival experiments with Ku-deficient cells exposed to chemotherapeutic agents
Type: cell-based, mouse
Details: FIG. 12

Molecule | sensitivity of Ku70 or Ku80 knock-out mouse cells to the agent (survival)
COc1cccc2c1C(=O)c1c(O)c3c(c(O)c1C2=O)C[C@@](O)(C(=O)CO)C[C@@H]3O[C@H]1C[C@H](N)[C@H](O)[C@H](C)O1 [adriamycin] | very sensitive
bleomycin | very sensitive
